# Key:
# [1] = test system: Rat Chronic Constriction Injury Model; conditions: 0.02 mg/kg/day subcutaneously; vs. 45% for unloaded polymer depots; FIG. 3
# From the text: (§1) A 2-month chronic constriction injury (CCI) model of neuropathic pain was used to evaluate different formulations of a clonidine, encapsulated in bioerodable polymers compared to clonidine given subcutaneously (SC).
# (§2) The inventors evaluated the efficacy of a five Month Clonidine/Polymer Drug Depot in the Rat Chronic Constriction Injury Model. The animal model was the Bennett Model (Wistar rat). The purpose: To determine whether a five month polymer clonidine-eluting depot can improve pain associated behavioral responses in a rat model of neuropathic pain.
# (§3) Experimental Design: Four loose chromic gut ligatures, 1 mm apart, were tied around the common sciatic nerve at mid-thigh. Each animal received treatment of test or control article-according to the dosing described in Table 5.
# (§4) The inventors have conducted the present study for a period of 64 days and have employed the following two tests: (1) the Hargreaves test; and (2) the von Frey test. The Hargreaves Tests of Thermal Hyperalgesia were conducted on days 7, 14, 21, 28, 35, 42, 49, 56 and 63. The von Frey monofilament test of mechanical allodynia (performed the day following Thermal testing) were conducted on days-8, 15, 22, 29, 36, 43, 50, 57 and 64.
# [2] = test system: Rat Chronic Constriction Injury Model; conditions: 0.02 mg/kg/day subcutaneously; compared to unloaded polymer depots; FIG. 4
# From the text: as §1, §2, §3, §4
structure (smiles),measurement,setting,value
"Clc1cccc(Cl)c1N=C1NCCN1 [clonidine, 2,6-dichloro-N-2-imidazolidinyldenebenzenamine]","pain behavioral response (percentage of baseline), thermal hyperalgesia",[1],58%
same,"pain behavioral response (percentage of baseline), mechanical allodynia",[2],reduced the behavioral response

# Source: patent US20090263451A1, “Anti-Inflammatory and/or Analgesic Agents for Treatment of Myofascial Pain” (Warsaw Orthopedic, Inc., priority 2008, published 2009)
